Results published in PubChem BioAssay AID1918952 (Molecular Pharmacology Branch, DTP, NCI, 2023).

System: LG0703-F948-PDC complex spheroid viability
Test: Anticancer human tumor LG0703-F948-PDC patient-derived lung adenocarcinoma cell line growth inhibition
Settings: for IC50: curve of first compound; for viability, T/C: stronger effect = lower value
Outline: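 Drug combinations with the LSD1 inhibitor iadademstat tested on tumor cells co-cultured as spheroids with endothelial cells and mesenchymal stem cells. Concentrations descended in half-log increments from clinical Cmax or 10 microM.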

[1] = second compound 0.1 µM, first compound 0.00316 µM
[2] = second compound 0.1 µM, first compound 0.01 µM
[3] = second compound 0.1 µM, first compound 0.0316 µM
[4] = second compound 0.1 µM, first compound 0.1 µM
[5] = second compound 0.316 µM, first compound 0.00316 µM
[6] = second compound 0.316 µM, first compound 0.01 µM
[7] = second compound 0.316 µM, first compound 0.0316 µM
[8] = second compound 0.316 µM, first compound 0.1 µM
[9] = second compound 1 µM, first compound 0.00316 µM
[10] = second compound 1 µM, first compound 0.01 µM
[11] = second compound 1 µM, first compound 0.0316 µM
[12] = second compound 1 µM, first compound 0.1 µM
[13] = second compound 3.16 µM, first compound 0.00316 µM
[14] = second compound 3.16 µM, first compound 0.01 µM
[15] = second compound 3.16 µM, first compound 0.0316 µM
[16] = second compound 3.16 µM, first compound 0.1 µM
[17] = second compound 10 µM, first compound 0.00316 µM
[18] = second compound 10 µM, first compound 0.01 µM
[19] = second compound 10 µM, first compound 0.0316 µM
[20] = second compound 10 µM, first compound 0.1 µM
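Further: spheroids exposed to agents for seven days before readout.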
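Wherever viability, T/C is given: 100% = DMSO vehicle control wells as normalization base.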

NS(=O)(=O)OCC1CC(n2ccc3c(NC4CCc5ccccc54)ncnc32)CC1O (stereo not given) + NC1CC1c1ccc(-c2cccc(O)c2)cc1
IC50 (second compound 0.1 µM): 683 nM | IC50 (second compound 0.316 µM): 582 nM | IC50 (second compound 1 µM): 559 nM | IC50 (second compound 3.16 µM): 559 nM | IC50 (second compound 10 µM): 302 nM | viability, T/C (second compound 0.1 µM, first compound 0.00949 µM): 101% | viability, T/C (second compound 0.1 µM, first compound 0.03 µM): 113% | viability, T/C (second compound 0.1 µM, first compound 0.0949 µM): 104% | viability, T/C (second compound 0.1 µM, first compound 0.3 µM): 75.2% | viability, T/C (second compound 0.1 µM, first compound 0.949 µM): 40.9% | viability, T/C (second compound 0.1 µM, first compound 3 µM): 19% | viability, T/C (second compound 0.316 µM, first compound 0.00949 µM): 118% | viability, T/C (second compound 0.316 µM, first compound 0.03 µM): 104% | viability, T/C (second compound 0.316 µM, first compound 0.0949 µM): 105% | viability, T/C (second compound 0.316 µM, first compound 0.3 µM): 73.9% | viability, T/C (second compound 0.316 µM, first compound 0.949 µM): 31.9% | viability, T/C (second compound 0.316 µM, first compound 3 µM): 21.6% | viability, T/C (second compound 1 µM, first compound 0.00949 µM): 107% | viability, T/C (second compound 1 µM, first compound 0.03 µM): 117% | viability, T/C (second compound 1 µM, first compound 0.0949 µM): 103% | viability, T/C (second compound 1 µM, first compound 0.3 µM): 68% | viability, T/C (second compound 1 µM, first compound 0.949 µM): 35.6% | viability, T/C (second compound 1 µM, first compound 3 µM): 18.6% | viability, T/C (second compound 3.16 µM, first compound 0.00949 µM): 110% | viability, T/C (second compound 3.16 µM, first compound 0.03 µM): 105% | viability, T/C (second compound 3.16 µM, first compound 0.0949 µM): 98.4% | viability, T/C (second compound 3.16 µM, first compound 0.3 µM): 70.4% | viability, T/C (second compound 3.16 µM, first compound 0.949 µM): 32.6% | viability, T/C (second compound 3.16 µM, first compound 3 µM): 16% | viability, T/C (second compound 10 µM, first compound 0.00949 µM): 107% | viability, T/C (second compound 10 µM, first compound 0.03 µM): 104% | viability, T/C (second compound 10 µM, first compound 0.0949 µM): 81.2% | viability, T/C (second compound 10 µM, first compound 0.3 µM): 50.8% | viability, T/C (second compound 10 µM, first compound 0.949 µM): 23.8% | viability, T/C (second compound 10 µM, first compound 3 µM): 12.6%

Cn1ncnc1C1c2n[nH]c(=O)c3cc(F)cc(c23)NC1c1ccc(F)cc1 (stereo not given) + NC1CC1c1ccc(-c2cccc(O)c2)cc1
IC50 (second compound 0.1 µM): > 100 nM | IC50 (second compound 0.316 µM): > 100 nM | IC50 (second compound 1 µM): > 100 nM | IC50 (second compound 3.16 µM): > 100 nM | IC50 (second compound 10 µM): > 100 nM | viability, T/C (second compound 0.1 µM, first compound 0.000316 µM): 105% | viability, T/C (second compound 0.1 µM, first compound 0.001 µM): 114% | viability, T/C [1]: 94.9% | viability, T/C [2]: 100% | viability, T/C [3]: 108% | viability, T/C [4]: 125% | viability, T/C (second compound 0.316 µM, first compound 0.000316 µM): 113% | viability, T/C (second compound 0.316 µM, first compound 0.001 µM): 114% | viability, T/C [5]: 117% | viability, T/C [6]: 100% | viability, T/C [7]: 93.7% | viability, T/C [8]: 105% | viability, T/C (second compound 1 µM, first compound 0.000316 µM): 102% | viability, T/C (second compound 1 µM, first compound 0.001 µM): 112% | viability, T/C [9]: 120% | viability, T/C [10]: 109% | viability, T/C [11]: 111% | viability, T/C [12]: 106% | viability, T/C (second compound 3.16 µM, first compound 0.000316 µM): 119% | viability, T/C (second compound 3.16 µM, first compound 0.001 µM): 123% | viability, T/C [13]: 101% | viability, T/C [14]: 107% | viability, T/C [15]: 114% | viability, T/C [16]: 124% | viability, T/C (second compound 10 µM, first compound 0.000316 µM): 108% | viability, T/C (second compound 10 µM, first compound 0.001 µM): 101% | viability, T/C [17]: 104% | viability, T/C [18]: 100% | viability, T/C [19]: 100% | viability, T/C [20]: 99.8%

O=C(C=Cn1cnc(-c2cc(C(F)(F)F)cc(C(F)(F)F)c2)n1)NNc1cnccn1 + NC1CC1c1ccc(-c2cccc(O)c2)cc1
IC50 (second compound 0.1 µM): 12.1 nM | IC50 (second compound 0.316 µM): 18 nM | IC50 (second compound 1 µM): 25.9 nM | IC50 (second compound 3.16 µM): 69.1 nM | IC50 (second compound 10 µM): 114 nM | viability, T/C [1]: 62.2% | viability, T/C [2]: 54.6% | viability, T/C [3]: 38.8% | viability, T/C [4]: 34.7% | viability, T/C (second compound 0.1 µM, first compound 0.316 µM): 31.8% | viability, T/C (second compound 0.1 µM, first compound 1 µM): 25.4% | viability, T/C [5]: 67.6% | viability, T/C [6]: 58.9% | viability, T/C [7]: 40% | viability, T/C [8]: 36.2% | viability, T/C (second compound 0.316 µM, first compound 0.316 µM): 26% | viability, T/C (second compound 0.316 µM, first compound 1 µM): 24.6% | viability, T/C [9]: 70.4% | viability, T/C [10]: 58.8% | viability, T/C [11]: 47% | viability, T/C [12]: 39.5% | viability, T/C (second compound 1 µM, first compound 0.316 µM): 29.5% | viability, T/C (second compound 1 µM, first compound 1 µM): 22.6% | viability, T/C [13]: 70.4% | viability, T/C [14]: 67.7% | viability, T/C [15]: 64% | viability, T/C [16]: 43.6% | viability, T/C (second compound 3.16 µM, first compound 0.316 µM): 22.4% | viability, T/C (second compound 3.16 µM, first compound 1 µM): 22% | viability, T/C [17]: 75.8% | viability, T/C [18]: 73.1% | viability, T/C [19]: 64.2% | viability, T/C [20]: 54.9% | viability, T/C (second compound 10 µM, first compound 0.316 µM): 31.7% | viability, T/C (second compound 10 µM, first compound 1 µM): 23.7%
